These are literature values, as cited in PubChem BioAssay AID1259409 (Chemical Carcinogenesis Research Information System (CCRIS), 2018).

In the series the test system is rodent chemically induced tumor inhibition, incidence and multiplicity. The series can be described thus: CCRIS tumor inhibitor studies. The conditions noted are these: Dose [Inhibitor]: 0, 50 UMOL/KG/D 3 D/WK FOR 8 WK ADMINISTERED 24 HR PRIOR TO EACH CARCINOGEN DOSE (STUDY DURATION: 24 WK), Route [Inhibitor]: SUBCUTANEOUS, Species: MOUSE, Strain/Sex: STRAIN-A/FEMALE, Target Tissue: Type of Lesion: LUNG: TUMOR, Promoter: NONE USED.

As for `O=[N+]([O-])[O-].O=[N+]([O-])[O-].O=[N+]([O-])[O-].[Bi+3]`, the “tumour outcome (control, treated, inhibition, significance)” value is, setting by setting: (Carcinogen: CISPLATIN, 15663-27-1, Dose [Carcinogen]: 2 UMOL/KG/D 3 D/WK FOR 8 WK) 100%, 54%, 46%, p<0.01; (Carcinogen: MELPHALAN, 148-82-3, Dose [Carcinogen]: 4 UMOL/KG/D 3 D/WK FOR 8 WK) 100%, 100%, 0%, not significant.
